Read-outs that look alike come from different tables or passages of the source.
What was measured:
human full length Hsp90 = target: T1, human full length Hsp90 (Homo sapiens, UniProt P07900); assay: Fluorescence polarization Hsp90 competitive binding assay (GM-FITC displacement)
T1 construct: amino acid residues 1 to 732 of human Hsp90 (GenBank: BC121062.2); made in house; host or cells: E. coli BL21DE3 (pET15b)
Description: Hsp90 binding assays was performed generally according to the procedure described in J. Biomol. […] Hsp90 inhibitors were solubilized in DMSO at a stock concentration of 50 mM. […] Eighty five μl of binding assay buffer (20 mM HEPES, pH-7.5, 50 mM KCl, 5 mM MgCl2, 20 mM sodium molybdate, 0.01% NP-40, 2 mM DTT, and 0.1 mg/ml BSA) was added to the wells of a 96 well black plate placed on ice. […] Next, 10 μl either binding assay buffer alone (control) or human full length Hsp90 protein diluted in the binding assay buffer was added to achieve a final concentration of 50 nM. The plates were incubated at 4° C. on a plate shaker for 24 h. Two μl of 50× GM-FITC (9 nM final) in DMSO was added to all wells and the plate was incubated at ambient temperature for 1 h with shaking. Fluorescence polarization readings were taken in duplicate at excitation and emission wavelengths of 480 nm and 500 nm respectively. Specific binding was calculated by subtracting polarization values in the presence of Hsp90 from those in the absence of Hsp90. To calculate percent inhibition the specific binding values obtained for GA-FITC in the presence of compound were compared to values for GA-FITC in the absence of compound (DMSO only).

MDA-MB-231 = assay: Cell viability / efficacy in breast cancer cells; format: cell-based
Description: (§1) The effect of SBI-0640725 on cell viability was determined by measuring cellular dehydrogenase activity (U251MG and MBA-MD-231 cells) or by measuring ADP levels (HepG2) after treating cells for 72 hours with increasing concentrations of SBI-0640725. To measure dehydrogenase activity, CCK-8 kit reagent (Dojindo) was added to the wells and incubated for 2 hours, after which absorbance was measured at 450 nm using a Synergy HT micro-titer plate reader (Biotek). To measure ADP levels, ADP-GLO reagent (Life Technologies) was added to the wells, and luminescence was measured after a 30 minute incubation using a POLARstar Omega micro-titer plate reader (BMG).
(§2) The table below summarizes efficacy of SBI-0640725 in various cancer cell lines, including U251MG, MDA-MB-231, and HepG2, using ADP-GLO assay described above. As used herein “efficacy” (EC50) is the concentration of a compound that produces half-maximal response in a cellular assay.

R127 = assay: Efficacy in ovarian cancer cells, ADP-GLO; format: cell-based
Description: as §1, §2

R182 = assay: Efficacy in ovarian cancer cells, ADP-GLO; format: cell-based
Description: as §1, §2

Akt1 in U251MG cells = assay: Hsp90 client protein stability, Akt1 ELISA; format: cell-based, human; conditions: 48 hours, increasing concentrations
Description: In further experiments, the effect of SBI-0640725 on the stability of Hsp90 client proteins was analyzed. […] Akt1 protein levels were measured in cell lysates using ELISA.

[1] = system: Hsp70 in MBA-MD-231 cells; assay: Hsp70 induction, ELISA; format: cell-based; conditions: MBA-MD-231, 48 hours
Description: Experiments were performed using U251 MG and MBA-MD-231 cells to also measure induction of Hsp 70 in response to treatment with SBI-0640725. […] For Hsp70 induction measurements, cells were treated with increasing concentrations of SBI-0640725 for 48 hours, and Hsp70 levels were measured in cell lysates using ELISA.

[2] = Rat CNS exposure (plasma and CNS tissue concentration, LC-MS/MS); format: in vivo; conditions: ex-vivo CNS tissue
Description: Test subjects (Sprague-Dawley rats) were housed in sterile vivarium with controlled temperature, humidity and 12-hour light-dark cycle (7:00 lights-on and 19:00 lights-off). Following procurement, rats were acclimated to the vivarium facility for 7 days prior to study day-1 with ad libitum access to both diet and water. Bedding was changed twice weekly. […] On study day-1 rats were administered vehicle or Hsp90 inhibitor formulation. Following administrations of test article formulation, blood and CNS tissue was collected at 6.5 h post-dosed by a necropsy procedure. In detail, CNS tissue was isolated from the Vehicle and dose groups, divided into 2 mid-sagittal sections, placed in tarred 1 mL micro-centrifuge tubes, weighed and immediately frozen on dry ice. Blood was isolated by a cardiac puncture procedure from the Vehicle and Hsp90 inhibitor dose groups. From these samples, plasma was isolated in plasma separator tubes containing ethylenediaminetetraacetic acid as the anticoagulant. HSP90 inhibitor concentrations in plasma and CNS tissue were determined using LC-MS/MS based methods following a 60% acetonitrile extraction.

Akt1 = assay: Rat CNS biomarker assay, Akt1 ELISA in CNS lysates; format: in vivo; conditions: intraperitoneally, versus vehicle
[3] = IC50, inhibition of Hsp90 activity, FIG. 7 concentration response
[4] = Table 1, 50 nM Hsp90, 9 nM GM-FITC, read-out: Biochemical Potency IC50
[5] = Table II, binding affinities ranked by potency
[6] = Table II, binding affinities ranked by potency, read-out: IC50

| Compound | IC50 (human full length Hsp90; [3]) [nM] | IC50 (human full length Hsp90; [4]) [nM] | Ki (human full length Hsp90; [5]) [nM] | IC50 (human full length Hsp90; [6]) [nM] | EC50 (MDA-MB-231; Homo sapiens, Breast Cancer, MDA-MB-231, ADP-GLO) [nM] | cell viability (MDA-MB-231; MBA-MD-231, 72 hours, dehydrogenase activity (CCK-8)) | EC50 (R127) [nM] | EC50 (R182) [nM] | levels of the client protein Akt1 (Akt1 in U251MG cells) | induction of Hsp70 [1] | IC50 (human full length Hsp90; assay validation / precision runs, read-out: IC50) [nM] | partitioning CNS (brain) versus plasma [2] | partitioning CNS (brain) versus plasma ([2]; listed as SB-0639353) | Akt1 level in CNS tissues (Akt1) |
| --- | --- | --- | --- | --- | --- | --- | --- | --- | --- | --- | --- | --- | --- | --- |
| COc1c(C)cnc(CN(CCc2ccc(F)cc2)c2cc(Cl)nc(N)n2)c1C [SBI-0640725] | 101 | 101 | 25 | 101 | 2400 | reduction in cell viability | 410 | 690 | progressive decrease in the levels of the client protein Akt1 | caused induction of Hsp70 |  |  |  |  |
| COc1c(C)cnc(CN(CCc2ccccc2)c2cc(Cl)nc(N)n2)c1C [SBI-0639353, 6-Chloro-N4-((4-methoxy-3,5-dimethylpyridin-2-yl)methyl)-N4-phenethylpyrimidine-2,4-diamine] | 255 | 255 | 64 | 255 |  |  |  |  |  |  | 255 to 308 | preferential partitioning into the brain compared to plasma | preferential partitioning | a decrease in its levels compared to vehicle treated rats |

Reference: patent publication US20160311795A1, “PYRIMIDINE DIAMINE DERIVATIVES AS INHIBITORS OF CYTOSOLIC HSP90” (CALASIA PHARMACEUTICALS, INC., priority 2012, published 2016)
